Test results: US5330992A, “1-cyclopropyl-4-pyridyl-quinolinones” (priority 1992, dated 1994)
Read-outs that look alike come from different tables or passages of the source.

How the values were obtained:
[1] = In vivo antitumor assay, Panc03(sc); set-up: species or system mouse; conditions: mouse, in vivo
From the text: (§1) Mice: Inbred: C3H/He and NCR-nu; and Hybrids: B6D2Fl (C57BL/6 females X DBA/2 males, CD2Fl (Balb/c females X DBS/2 males) and B6x C3fl (C57BL/6 x C3H) were bred at Wayne State University from strained obtained from the Frederick Cancer Research Facility, Frederick, Md. or purchased from commercial suppliers.
(§2) Tumors: Murine Tumor: P388 and an adriamycin-resistant (ADR) subline P388/ADR leukemia and the following transplantable solid tumors of mice were used for in Vivo testing: B16 melanoma (B16), pancreatic ductal adenocarcinoma No. 03 (Panc 03), colon adenocarcinoma No. 38 (colo 38), mammary ductal adenocarcinoma No. 16/C (Mam16) and an adriamycin-resistantsubline Mam16C/ADR. Human tumor: A single human tumor, mammary carcinoma MX-1 (MX1) was used for in vivo testing. All tumors are in the Developmental Therapeutics Program frozen tumor respository, maintained by the Biological Testing Branch, Frederick Md. Each has a detailed description, code identification number, and list of references at the National Tumor Repository. Murine tumors were maintained in the mouse strain of origin and were transplanted in the appropriate F1 hydrid (or the strain of origin) for therapy trials. Human mammary carcinoma MX-1 MX1) was maintained as a subcutaneous implant in either athymic Swiss (Cr: NIH(S)-nu) or athymic random bred (NCR-nu) mice and transplanted in NCR-nu for therapy trials.
(§3) Chemotherapy: For pancreatic ductal adenocarcinoma No. 3, colon adenocarcinoma No. 38 (colo38), lung carcinoma No. 12 (LC12) and both adriamycin-sensitive (RP) and -resistant ADR) mammary ductal adenocarcinoma No. 16 (Mam16) tumors, the following methods were used to help ensure a more uniform tumor burden per mouse (thus reducing the requirement for greater numbers of mice per group), bilateral tumor implants were used. The animals necessary to begin an experiment were pooled, implanted bilaterally s.c. on day zero with 30-60-mg tumor fragments using a 12-gauge trocar, and again pooled before randomization to the various treatment and control groups. Chemotherapy was started within three days after tumor implantation while the number of cells per mouse was relatively small (1×10^7 […]).
(§4) Quantitative end points used assess antitumor activity included % Increased Life Span (% ILS), Tumor Cell Kill (Log10 kill), and Tumor Growth Inhibition (T/C). Long Term Survivors (45 or 60 day) were excluded from calculations of % ILS and Tumor Cell Kill.
(§5) The log10 cell kill was calculated from the following formula: [formula] where T-C is the tumor difference in the median day of death between the treated (T) and the control (C) groups and Td is the tumor doubling time (in days), the latter estimated from the best fit straight line from a log-linear growth plot of the control-group tumors in exponential growth. The conversion of the T-C values to log10 cell kill is possible because the Td for tumors regrowing post-treatment approximated the Td values of the tumors in untreated control mice.
(§6) Tumors were measured with a caliper once or twice weekly (as needed) until either tumors exceeded 1600 mg or cure was assured. Tumor weights were estimated from two-dimensional measurements: Tumor Weight (mg)=(a×b^2) / 2, where a and b are the tumor length and width (nun) respectively. Measurements were carried out simultaneously in both treatment and control groups. When the control group tumors reached approximately 750-1500 mg in size (median of group), the median tumor weight of each group was determined (including zeros). The T/C value in percent is an indiation of antitumor effectiveness. The % T/C was calculated from the following formula for solid murine tumor models: [formula] where T and C are median tumor weights of the treatment and control groups, respectively. A T/C equal to or less than 42% is considered significant antitumor activity. […]

[2] = tested on: pancreatic ductal adenocarcinoma No. 03 (Panc 03); assay: In vivo antitumor assay, Panc03(sc); set-up: species or system mouse
From the text: as §1, §2, §3, §4, §5, §6

[3] = biological target: T1, human topoisomerase II (Homo sapiens, UniProt P11388); assay: Mammalian Topoisomerase II Inhibition Assay (DNA-topo II complex formation); type: biochemical; conditions: EC50 = concentration with activity equal to EC50 of reference mAMSA; read-out: TopoII Inh. EC50
T1 construct: Topo II was purified from late log phase suspension cultures of HeLa WIS; endogenous in cells; host or cells: HeLa WIS suspension cultures, late log phase (enzyme purified from the cells)
T1 sequence (P11388 whole entry): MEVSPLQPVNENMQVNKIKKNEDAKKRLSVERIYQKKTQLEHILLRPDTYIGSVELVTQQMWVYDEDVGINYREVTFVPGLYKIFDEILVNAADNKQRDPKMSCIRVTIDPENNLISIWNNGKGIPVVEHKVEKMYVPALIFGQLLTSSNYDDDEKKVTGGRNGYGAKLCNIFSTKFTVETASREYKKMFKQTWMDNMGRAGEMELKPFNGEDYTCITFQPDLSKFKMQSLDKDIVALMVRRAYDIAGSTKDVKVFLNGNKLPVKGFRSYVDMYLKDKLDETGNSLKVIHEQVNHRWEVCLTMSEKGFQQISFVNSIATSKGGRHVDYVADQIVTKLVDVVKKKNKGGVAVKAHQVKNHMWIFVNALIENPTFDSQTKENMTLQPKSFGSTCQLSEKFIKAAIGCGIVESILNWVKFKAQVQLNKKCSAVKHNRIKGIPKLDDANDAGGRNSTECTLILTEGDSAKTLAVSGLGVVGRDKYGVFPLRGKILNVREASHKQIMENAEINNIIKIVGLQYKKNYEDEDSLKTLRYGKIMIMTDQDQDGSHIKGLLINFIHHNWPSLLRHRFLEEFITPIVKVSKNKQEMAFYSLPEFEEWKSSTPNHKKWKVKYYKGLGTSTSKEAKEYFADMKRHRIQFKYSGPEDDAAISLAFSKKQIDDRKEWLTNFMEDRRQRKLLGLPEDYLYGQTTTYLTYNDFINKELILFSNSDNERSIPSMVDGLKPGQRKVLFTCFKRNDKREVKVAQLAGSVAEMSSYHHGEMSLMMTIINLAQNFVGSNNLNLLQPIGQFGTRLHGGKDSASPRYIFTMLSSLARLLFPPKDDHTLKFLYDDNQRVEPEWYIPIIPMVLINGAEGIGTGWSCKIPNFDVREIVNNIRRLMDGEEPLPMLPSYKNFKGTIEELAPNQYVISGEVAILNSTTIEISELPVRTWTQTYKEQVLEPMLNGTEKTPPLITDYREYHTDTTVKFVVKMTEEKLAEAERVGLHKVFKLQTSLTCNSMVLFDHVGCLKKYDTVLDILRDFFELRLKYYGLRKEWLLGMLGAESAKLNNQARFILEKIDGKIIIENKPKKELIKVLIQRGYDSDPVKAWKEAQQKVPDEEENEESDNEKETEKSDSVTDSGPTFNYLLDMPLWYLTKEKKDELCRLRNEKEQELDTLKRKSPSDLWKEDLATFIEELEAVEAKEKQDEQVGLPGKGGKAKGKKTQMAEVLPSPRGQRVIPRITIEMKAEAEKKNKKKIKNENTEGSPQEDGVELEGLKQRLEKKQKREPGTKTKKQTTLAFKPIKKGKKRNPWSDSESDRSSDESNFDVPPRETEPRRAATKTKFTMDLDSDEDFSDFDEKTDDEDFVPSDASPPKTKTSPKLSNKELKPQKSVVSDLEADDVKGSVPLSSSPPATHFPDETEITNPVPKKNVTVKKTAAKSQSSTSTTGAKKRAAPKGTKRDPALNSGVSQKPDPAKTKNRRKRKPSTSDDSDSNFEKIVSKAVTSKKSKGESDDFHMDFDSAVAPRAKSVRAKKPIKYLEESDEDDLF
Method: Mammalian Topoisomerase II Inhibition Assay Procedure
The assay quantitates the amount of topo II covalently complexed by DNA at equilibrium during a topo II reaction. This assay determines the potential of a compound to stabilize this complex, which potential is closely related to the cytotoxicity of the compound.
Assays (in duplicate) were assembled at 4° C.
4 ng 3' end labeled (^32 P) pBR322 DNA (10^7 DMP/μg)
The assay mix including the test compound was incubated for 20 minutes at 37° C. The reaction was terminated at 37° C. by the addition of 3 μl 10% SDS followed by the addition of 266 μl 10 mM Tris-Cl pH 7.5, 20 μg/ml BSA, 20 μg/ml calf thymus DNA, 1% SDS.
A SDS/protein precipitate was formed by the addition of 28 μl 2.5M KCl followed by chilling on ice for a minimum of 10 minutes. The precipitate was collected and washed with a Brandell cell harvester on a GFB glass fiber filter membrane as follows. The contents of the assay tube were drawn up into the harvester. The tube was then rinsed 7X with 10 mM Tris-Cl pH 7.5, 1 mM EDTA and 100 mM KCl. […] After drying, CPM was determined by liquid scintillation counting with 5 ml Biofluor (NEN Research Products) or Readisafe (Beckman Instruments Inc.) cocktail.
This solution then was diluted 1/5 into water and serially thereafter in either 0.02N sodium hydroxide or 0.04N hydrogen chloride, respectively. The stock solution and serial dilution of the test compound was stored at -20° C. prior to testing.
Screening of test compound--As an initial screen, the test compound was tested at a final concentration of 2, 20 and 200 μg/ml. The compound was then retested at a range of concentrations (usually 2-3X steps) bridging their approximate EC50 's, as estimated by the prescreen.
Controls--A solvent control which indicates the base level of topo II-DNA complex formed in the absence of the test compound was included in each test. A control, in which topo II was omitted, was included for each test compound at the highest drug concentration tested.
Reference Agent--A dose response curve with mAMSA at 0.01, 0.08, 0.16, 0.32, 1.0 and 10 μg/ml was included in each test.
The maximal DNA-topo II complex formed is taken as that equal to that formed at the nearly saturating dose of mAMSA (10 μg/ml).

[4] = tested on: P388 murine leukemia cells; assay: Malignant cell cytotoxicity, one-hour exposure (clonogenic survival in soft agar); type: cell-based; conditions: Mus musculus, 1 hr exposure, read-out: IC50 P388 1 hr. exp.
Method: (§7) Examples of compound I having Topo II activity were tested for malignant cell cytotoxicity. In vitro cytotoxicity was assayed by determining cell survival following exposure of P388 murine leukemia cells to a range of test compound concentrations. Cytotoxicity was quantitated following either a one-hour exposure or continuous exposure of P388 cells to test compound.
(§8) Cytotoxicity following a one-hour exposure of cells to drug was assayed by quantitating clonogenic cell survival according to a published procedure [Freshney, R. L. (1987) Culture of Animal Cells. A Manual of Basic Technique. Wiley-Liss Inc., New York, N.Y., pp. 140-144]. Briefly, following drug exposure cells were plated in soft agar and incubated (37°, 5% CO2) for 7-10 days during which time viable cells form visible colonies. Cytotoxicity following continuous exposure of cells to test compound was assayed by quantitating total P388 cells on a Coultier Counter following a 48-hour co-incubation of test compound with cells. P388 cells were maintained in log phase throughout the duration of cytotoxicity assays.
(§9) The percentage of cells surviving relative to an untreated control was graphed as a function of increasing drug concentration.

[5] = tested on: P388 murine leukemia cells; assay: Malignant cell cytotoxicity, continuous 48-hour exposure (Coulter Counter); type: cell-based; conditions: Mus musculus, read-out: IC50 P388 cont. exp.
Method: as §7, §8, §9

[6] = drug route iv, sc, Ex 18 iv qd 3 bid 4-9, sc bid 10-11, Ex 20 iv qd 3,5 bid 4,6-8, sc bid 9-11 qd 12, read-out: MTD
[7] = drug route iv, sc, Ex 18 iv qd 3 bid 4-9, sc bid 10-11, Ex 20 iv qd 3,5 bid 4,6-8, sc bid 9-11 qd 12

| SMILES | MTD [1, 6] [mg/kg] | T/C % [2, 7] [%] | EC50 [3] [µM] | IC50 [4] [µM] | IC50 [5] [µM] | MTD ([1]; drug route sc, qd 3-12, footnote 1, read-out: MTD (MTD not achieved, maximum dose tested)) [mg/kg] | T/C % ([2]; drug route sc, Ex 3 qd 3-12, Ex 26 qd 3,5-7 bid 4) [%] |
| --- | --- | --- | --- | --- | --- | --- | --- |
| Cc1cc(-c2c(F)cc3c(=O)c(Cc4ncc[nH]4)cn(C4CC4)c3c2F)cc(C)n1 [Example 18] | 88 | 21 | 1.1 | 1.1 | – | – | – |
| Cc1cc(-c2c(F)cc3c(=O)c(Cc4ccccc4)cn(C4CC4)c3c2F)cc(C)n1 [Example 3] | – | – | 3.9 | 7.3 | 7.1 | > 3750 | > 100 |
| Cc1cc(-c2c(F)cc3c(=O)c(Cc4cccc(F)c4OCc4ccccc4)cn(C4CC4)c3c2F)cc(C)n1 [Example 20] | 336 | 80 | > 90 | 0.25 | – | – | – |
